Patent publication US20230173090A1, “COMPOSITIONS AND METHODS FOR MODULATING DOPAMINE RECEPTOR ACTIVITY” (The Regents of the University of California, priority 2020, published 2023)

How the values were obtained:
dStr-dMSN D1Rs = dStr-dMSN D1Rs (Mus musculus, UniProt Q61616); test: Open field test, MP-D1ago in dStr-dMSNs of D1-Cre mice; settings: trans-P-D1ago 100 µM, 1 µL bilateral dStr-infusion, mice expressing the M
Source text: The mice were 20-30 grams and 8-20 weeks old. […] Mice were maintained on a 12:12 light cycle (lights on at 07:00).
The sub-second velocity traces recorded using Biobserve were smoothed in MATLAB using a first order Butterworth filter (normalized cutoff frequency ωu = 0.02). Using original code written in MATLAB, a velocity threshold was manually set to distinguish movements from tracking artifacts, as verified by visual inspection of each movie. Movement bouts were counted when the velocity surpassed this threshold and lasted for at least 0.3 seconds. Bouts were considered finished after the velocity remained below the manually defined threshold for 0.1 seconds. The percent time moving was calculated as the time that velocity was above the movement threshold divided by the time of the entire measurement. Movement initiation frequency was calculated as the number of times velocity surpassed the movement threshold per second. Movement bout duration was calculated by averaging the duration of all movement bouts that occurred during the entire measurement. Max velocity was calculated by averaging the maximum velocity of all movement bouts that occurred during the entire measurement.

GIRK channels = biological target: T1, GIRK channels (Homo sapiens, UniProt P48549, F137S); settings: 1 µM P-D1ago labeled cells without D1R; % of 3 mM BaCh, a GIRK channel blocker; n = 5 cells
T1 sequence (P48549 1-501 F137S): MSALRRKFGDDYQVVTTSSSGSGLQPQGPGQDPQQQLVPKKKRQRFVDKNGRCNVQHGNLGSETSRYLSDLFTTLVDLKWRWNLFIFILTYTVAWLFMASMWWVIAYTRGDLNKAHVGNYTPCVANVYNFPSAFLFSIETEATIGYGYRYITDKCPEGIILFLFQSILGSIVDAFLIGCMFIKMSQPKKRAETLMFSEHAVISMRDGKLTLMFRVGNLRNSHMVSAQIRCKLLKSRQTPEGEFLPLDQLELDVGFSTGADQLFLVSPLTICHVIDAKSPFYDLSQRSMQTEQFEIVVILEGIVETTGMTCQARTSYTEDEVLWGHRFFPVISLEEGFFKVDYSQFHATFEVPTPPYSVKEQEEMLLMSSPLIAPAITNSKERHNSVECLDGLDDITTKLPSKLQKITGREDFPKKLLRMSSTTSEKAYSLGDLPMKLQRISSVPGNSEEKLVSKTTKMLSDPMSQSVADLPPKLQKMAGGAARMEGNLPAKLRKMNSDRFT

D1R = biological target: T2, D1R (Homo sapiens, UniProt P21728); test: D1R-mediated cAMP accumulation assay (BRET sensor CAMYEL) in HEK293T cells; format: cell-based; settings: FIGS. 9A-9H
T2 construct: expressed in transfected cells; host or cells: HEK293T (A1, A2); HEK293 (A26)
Source text: FIGS. 9A-9H. Functional properties of untethered P-D1ago. (A) Schematic representation of a D1R-mediated G protein-coupled inwardly rectifying potassium (GIRK) channel assay in HEK293T cells. Agonist-induced receptor activation results in the recruitment of a heterotrimeric G protein containing the chimeric Gα subunit (Gαis) followed by the release of Gβγ, which activates GIRK channels and enhances inward-current. […]. (C) Representative traces of the effect of untethered P-D1ago on D1R in the absence of the membrane-anchor (M) according to the GIRK assay. […] (D) Summary of the functional effect of untethered P-D1ago on D1R in the GIRK assay. n = 4-5 cells per condition. (E) Schematic representation of a highly sensitive D1R-mediated cAMP accumulation assay in HEK293T cells. Agonist-induced D1R activation results in Gs/olfrecruitment followed by the binding of its Gα subunit to adenylate cyclase (AC), which enhances the conversion of ATP to cAMP. cAMP binds the bioluminescence resonance energy transfer 1 (BRET′)-based cAMP sensor CAMYEL^87, resulting in a conformational change in its Epac domain that increases the distance and decreases BRET^1 between the donor Renilla luciferase (Rluc) and the acceptor YFP. […]

Chain of dStr-dMSN D1Rs (Q61616 whole entry, the tested form may be a part): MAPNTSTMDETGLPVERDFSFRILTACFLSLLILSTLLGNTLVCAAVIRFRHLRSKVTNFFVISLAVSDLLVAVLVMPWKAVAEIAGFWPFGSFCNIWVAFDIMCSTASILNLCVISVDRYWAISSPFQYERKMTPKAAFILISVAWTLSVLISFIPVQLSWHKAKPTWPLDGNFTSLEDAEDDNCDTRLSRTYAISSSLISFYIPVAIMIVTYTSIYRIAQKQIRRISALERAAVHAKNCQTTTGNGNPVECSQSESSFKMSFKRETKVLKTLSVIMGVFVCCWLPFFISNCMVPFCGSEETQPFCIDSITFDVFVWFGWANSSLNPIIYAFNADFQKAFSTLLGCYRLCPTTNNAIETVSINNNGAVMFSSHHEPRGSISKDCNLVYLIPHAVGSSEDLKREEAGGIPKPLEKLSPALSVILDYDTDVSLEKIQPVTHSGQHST
T2 sequence (P21728 whole entry): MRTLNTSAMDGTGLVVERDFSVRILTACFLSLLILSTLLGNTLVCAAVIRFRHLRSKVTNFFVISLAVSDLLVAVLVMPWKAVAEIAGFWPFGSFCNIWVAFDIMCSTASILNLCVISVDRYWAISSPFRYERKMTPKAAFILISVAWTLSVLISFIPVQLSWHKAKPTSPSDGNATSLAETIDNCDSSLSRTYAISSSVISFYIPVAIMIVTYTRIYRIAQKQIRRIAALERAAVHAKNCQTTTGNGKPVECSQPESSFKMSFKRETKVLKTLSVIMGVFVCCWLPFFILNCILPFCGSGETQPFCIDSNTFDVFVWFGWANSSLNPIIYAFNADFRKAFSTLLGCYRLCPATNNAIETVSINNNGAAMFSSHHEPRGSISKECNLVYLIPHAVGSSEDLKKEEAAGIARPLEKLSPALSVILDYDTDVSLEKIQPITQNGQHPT

SMILES: CCCN(CCc1ccc(N=Nc2ccc(NC(=O)CNC(=O)CCOCCOCCOCCOCCOCCOCCOCCOCCOCCOCCOCCOCCn3cc(CCC(=O)NCc4ccc(COc5nc(N)nc6nc[nH]c56)cc4)nn3)cc2)cc1)C1CCc2c(O)cccc2C1 (centres unmarked) [P-D1ago, Benzylguanine-azobenzene-PPHT]
- persistence of increased motor activity (dStr-dMSN D1Rs): remained high for many hours
- return of motor activity to baseline (dStr-dMSN D1Rs): returned to baseline over a two-day period
- time to increase of motor activity after start of infusion (dStr-dMSN D1Rs; dark): ≤ 30 min
- effect of switching from UV light to blue light on basal current (GIRK channels): 1.3 ± 1.0%
- agonist profile at D1R in untethered form (D1R): low potency full agonist
